This note sets out measurements from patent US20230143604A1, “QW DOSING OF GIP RECEPTOR AGONIST PEPTIDE COMPOUNDS AND USES THEREOF” (TAKEDA PHARMACEUTICAL COMPANY LIMITED, priority 2020, published 2023).

For one series, the system named is female beagle dogs. In words: PYY-1119-induced vomiting in dogs. It counts as in vivo. As to conditions: 3 nmol/kg s.c., 72 hours post-dose (lower line). As to the method:
The GIPR agonist peptide compounds of the present disclosure or vehicle (0.09% [w/v] Tween 80/10% DMSO/PBS) were administered subcutaneously (sc) at 3-10 nmol/kg to female beagle dogs (10 months old), followed by sc injections with Y2R agonist ((4-imidazolecarbonyl-Ser-D-Hyp-Iva-Pya(4)-Cha-Leu(Me)-Asn-Lys-Aib-Thr-Arg-Gln-Arg-Cha-NH2), […]), […]) at 1 hour or specified hours in the table postdose. Emetic episodes were counted for 2 hours after administration (by blinded analysis).

The subject of another series is Dogs. In kind it is in vivo. To be noted: 30 nmol/kg s.c. As to the method:
Dogs are transferred to an observation cage (700 mm W×700 mm D×700 mm H [W×D×H], without food) on 1 day before each apomorphine challenge. The dogs are weighed by using an electronic balance then test peptide compounds and vehicle will be administrated via the subcutaneous route. Apomorphine is challenged at 8 hr after the administration and emetic events will be monitored for 1 h by video recording. The second apomorphine challenge will be 72 hr after the administration and emetic events will be recorded by the same protocol. Emesis symptoms are continuously recorded using a video camera and stored on a blue ray disc. Observation of symptoms include retching (a rhythmic contraction of the abdomen) and vomiting (vomiting behavior, including the elimination of vomitus or similar behavior). Besides, the combination of retching and vomiting is defined as emesis, and the number of episodes, latency (time elapsed from morphine administration until the onset of the first emesis symptom), duration (time elapsed between the onset of the first and final episodes of emesis), and frequency (number of animals showing emesis/number of experimental animals) of each of these symptoms is calculated. The latency in cases where emesis symptoms are not noted is taken as the maximum value (1 h for apomorphine challenge) at the end of observation. When the duration of the emesis symptoms is less than 1 min, the duration is recorded, for convenience, as 1 min.

A short description of a further series: physchem. In short, it runs like this:
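Solubility at pH 7.4 determined by stepwise addition of 200 mM phosphate buffer in 100 μL increments to 3 mg peptide, mixing briefly each time, until no insoluble material remained, then measured by liquid chromatography.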

Series [1] can be described thus: Pharmacokinetics in dog after IV and SC dosing. As to conditions: in vivo, 3 nmol/kg. In short, it runs like this:
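Dogs were dosed IV or SC at 1 mL/kg with peptide at 3 nmol/mL in 10% DMSO/0.09% Polysorbate/PBS pH 7.4. K2-EDTA plasma was sampled to 336 h, and peptide was quantified by LCMS to derive half-life.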

Read-outs that look alike come from different tables or passages of the source.

Consider `CC[C@H](C)[C@H](NC(=O)[C@H](CO)NC(=O)[C@H](Cc1ccc(O)cc1)NC(=O)[C@H](CC(=O)O)NC(=O)[C@H](CO)NC(=O)[C@@H](NC(=O)[C@H](Cc1ccccc1)NC(=O)[C@@H](NC(=O)CNC(=O)[C@H](CCC(=O)O)NC(=O)C(C)(C)NC(=O)[C@H](Cc1ccc(O)cc1)NC)[C@@H](C)O)[C@@H](C)CC)C(=O)N[C@@H](C)C(=O)N[C@@H](CCCCNC(=O)CNC(=O)CNC(=O)CNC(=O)CNC(=O)CNC(=O)CCCCCCCCCCCCCCCCC(=O)O)C(=O)N[C@@H](CC(=O)O)C(=O)N[C@@H](CCCNC(=N)N)C(=O)NC(C)(C)C(=O)N[C@@H](C)C(=O)N[C@@H](CCC(N)=O)C(=O)NC(C)(C)C(=O)N[C@@H](CC(N)=O)C(=O)N[C@@H](Cc1ccccc1)C(=O)N[C@H](C(=O)N[C@@H](CC(N)=O)C(=O)N[C@@H](Cc1c[nH]c2ccccc12)C(=O)N[C@@H](CC(C)C)C(=O)N[C@@H](CC(C)C)C(=O)N[C@@H](C)C(=O)N[C@@H](CCC(N)=O)C(=O)N[C@@H](CO)C(=O)N1CCC[C@H]1C(=O)N[C@@H](CO)C(=O)N[C@@H](CO)C(=O)NCC(=O)N[C@@H](C)C(=O)N1CCC[C@H]1C(=O)N1CCC[C@H]1C(=O)N1CCC[C@H]1C(=O)N[C@@H](CO)C(=O)O)C(C)C` [Compound 45, Me-Y-Aib-E-G-T-F-I-S-D-Y-S-I-A-Km-D-R-Aib-A-Q-Aib-N-F-V-N-W-L-L-A-Q-S-P-S-S-G-A-P-P-P-S-OH], for which the “Inhibition (%) of PYY-1119-induced emetic event” value with female beagle dogs was 90% (3 nmol/kg). In addition, the figures for the “% inhibition of emetic events at doses (nmol/kg) shown in dog apomorphine model” value in the series with Dogs (after 8 hrs (upper)) and with Dogs (after 72 hours (lower)) were 70% (30 nmol/kg) and 72% (30 nmol/kg), respectively. Further, the solubility in “physchem” (pH 7.4) was ≥ 15 mg/mL; in “physchem” (pH 7.4, aqueous buffer), ≥ 60 mg/mL. For the same molecule, in series [1] (iv), the half-life is 62 h. Besides, the MRT last in series [1] (sc) worked out at 125 h.

In general, solubility refers to the concentration that dissolves in the medium under given conditions. Lower therefore signals a poorly soluble substance. One may read the half-life as how long it takes for the measured level to halve. The term MRT last denotes a mean duration of stay, worked out from the concentration-time curve.
